Literature values, collected in patent publication US9504677B2, “Substituted N-aryl pyridinones” (Auspex Pharmaceuticals, Inc., priority 2007, dated 2016).

Legend:
[1] = test system: leiomyoma cells
[2] = test system: myometrial cells
[3] = humans
[4] = test system: rodent disease models

half-life [3]: very short
SMILES: Cc1ccc(=O)n(-c2ccccc2)c1 [Pirfenidone, 5-methyl-1-phenyl-1H-pyridin-2-one]
DNA synthesis [1]: inhibits DNA synthesis
DNA synthesis [2]: inhibits DNA synthesis
efficacy in rodent disease models [4]: effective
